# Laboratory results taken from PubChem BioAssay (NCI).
# “And” between values parts separate entries of the source, which are not always exact repeats. Equal values may be shown once.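 A five-concentration, 48-hour dose response in 96-well plates underlies each endpoint, interpolated linearly between surrounding concentrations. GI50 is the concentration that inhibits growth by half. At the TGI there is no net growth.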
# Columns and labels:
# Experiment in all cases: NCI tumour cell line growth inhibition, 48 h
# SF-268 CNS = test system: SF-268 CNS
# NCI-H522 lung = test system: NCI-H522 lung
# HOP-92 NSCLC = test system: HOP-92 NSCLC
# MOLT-4 leukemia = test system: MOLT-4 leukemia
# OVCAR-8 ovarian = test system: OVCAR-8 ovarian
# NCI-H23 lung = test system: NCI-H23 lung
# SK-OV-3 ovarian = test system: SK-OV-3 ovarian
# NCI/ADR-RES ovarian = test system: NCI/ADR-RES ovarian
# MDA-MB-435 = test system: MDA-MB-435
# MCF7 breast = test system: MCF7 breast
Compound,TGI (SF-268 CNS),TGI (NCI-H522 lung),TGI (HOP-92 NSCLC),TGI (MOLT-4 leukemia),TGI (OVCAR-8 ovarian),TGI (NCI-H23 lung),TGI (SK-OV-3 ovarian),GI50 (SF-268 CNS),GI50 (NCI-H522 lung),GI50 (NCI/ADR-RES ovarian),TGI (NCI/ADR-RES ovarian),GI50 (HOP-92 NSCLC),GI50 (MDA-MB-435),TGI (MDA-MB-435),GI50 (OVCAR-8 ovarian),GI50 (NCI-H23 lung),GI50 (SK-OV-3 ovarian),GI50 (MCF7 breast),TGI (MCF7 breast),GI50 (MOLT-4 leukemia)
Cc1cc(Cl)ccc1NC(=O)C(=O)Cc1nc2ccc(C(=O)c3ccccc3)cc2[nH]c1=O,> 100 µM,> 100 µM,> 100 µM,> 100 µM,> 100 µM,> 100 µM,> 100 µM,,,,,,,,,,,,,
CC12CC3(C)CC(C)(C1)CC(N=[N+]=[N-])(C2)C3,> 100 µM,> 100 µM,> 100 µM,> 100 µM,> 100 µM,> 100 µM,> 100 µM,,,,,,,,,,,,,
COc1cc(Nc2ccnc(N3CCN(c4ccnc5cc(Cl)ccc45)CC3)n2)cc(OC)c1,> 100 µM,4.48 µM,6.61 µM,,> 23 µM,> 100 µM,> 36.3 µM,3.05 µM,0.874 µM,1.1 µM,5.47 µM,0.431 µM,0.209 µM,0.626 µM,1.97 µM,1.32 µM,3.17 µM,0.198 µM,> 25.6 µM,
COc1cc2nncc(Sc3cnnc4ccccc34)c2cc1OC,> 100 µM,29.8 µM,> 100 µM,54.5 µM,,,76.6 µM,,,,,,,,,,,,,
CSc1nc2c(c(O)c(C)c(=O)n2C2OC(COC(C)=O)C(OC(C)=O)C(OC(C)=O)C2OC(C)=O)c(=O)n1C (configuration not stated),> 100 µM,> 100 µM,> 100 µM,,> 100 µM,> 100 µM,> 100 µM,,,,,,,,,,,,,
Cc1cccc(NC(=O)c2sc3nc4c(cc3c2N)CCCC4)c1C,> 100 µM,> 100 µM,> 100 µM,> 100 µM,> 100 µM,> 100 µM,> 100 µM,1.03 µM,0.269 µM,,,0.7 µM,0.115 µM,0.391 µM,0.754 µM,0.519 µM,0.581 µM,0.339 µM,> 100 µM,0.455 µM
O=c1nc(-c2ccccc2)c2c3c(cccn13)CCC2,> 100 µM,> 100 µM,> 100 µM,> 100 µM,> 100 µM,> 100 µM,> 100 µM,,,,,,,,,,,,,
COc1cc(C2c3cc4c(cc3[C@@H](Nc3ccc(N(C)C)cc3)[C@H]3COC(=O)C23)OCO4)cc(OC)c1O (some centres not stated),4.32 µM and 16.6 µM,2.29 µM and 2.56 µM,11.4 µM and 17 µM,,7.97 µM and 24.9 µM,0.717 µM and 3.18 µM,2.23 µM and 5.72 µM,3.13 µM,1.18 µM,,,0.807 µM,,,1.78 µM,0.388 µM,0.279 µM,,,< 0.0075 µM
O=C(c1ccccc1)c1c(CC(O)c2cccnc2)n(C(=O)c2ccccc2)c2ccccc12 (configuration not stated),59.4 µM,30.1 µM,30.9 µM,47.7 µM,> 100 µM,36.5 µM,,,,,,,,,,,,,,
CC[O-].CC[O-].O=C1C(=C([O-])c2ccccc2)C(=O)c2ccccc21.O=C1C(=C([O-])c2ccccc2)C(=O)c2ccccc21.[Ti+4],> 10 µM,,> 100 µM,> 100 µM,> 100 µM,> 100 µM,,> 10 µM,,,,95.1 µM,,,92.7 µM,92.3 µM,,,,> 100 µM
